The results in this text go back to PMC5820647, “Simultaneous Quantification of Gallic Acid, Bergenin, Epicatechin, Epicatechin Gallate, Isoquercitrin, and Quercetin-3-Rhamnoside in Rat Plasma by LC-MS/MS Method and Its Application to Pharmacokinetics after Oral Administration of Ardisia japonica Extract” (Evidence-based Complementary and Alternative Medicine : eCAM, 2018).

SMILES strings stand for the structures. Like-named read-outs stand apart in the source and are kept apart here.

The format of series [1] is physicochemical. The note with it: for Free-throw 3 times Accuracy: 3 cycles freezing at about −20°C and thawing at room temperature; for 24 h stability Accuracy: autosampler, room temperature. As for the experimental part:
The standard stock solutions of gallic acid, bergenin, epicatechin, epicatechin gallate, isoquercitrin, and quercetin-3-rhamnoside were prepared by dissolving each separately in methanol to achieve a concentration of 1 mg mL^−1 for use as the stock solution. The three ISs including ferulic acid, puerarin, and warfarin were prepared using the same procedure as mentioned above with the concentration being 1 μg mL^−1. Calibration standard solutions were prepared by spiking the different concentrations of the standard mixture working solutions into plasma to achieve the concentration range of 2–500 ng mL^−1 for gallic acid; 2–500 ng mL^−1 for bergenin; 4–1000 ng mL^−1 for epicatechin; 2–500 ng mL^−1 for epicatechin gallate; 1–250 ng mL^−1 for isoquercitrin; and 0.4–100 ng mL^−1 for quercetin-3-rhamnoside. The QC samples were prepared by spiking 10 μL of the standard stock solutions into 100 μL of blank plasma to achieve LLOQ, low, medium and high concentrations of 2, 6, 20, and 200 ng mL^−1 for gallic acid; 2, 6, 20, and 200 ng mL^−1 for bergenin; 4, 12, 40, and 400 ng mL^−1 for epicatechin; 2, 6, 20, and 200 ng mL^−1 for epicatechin gallate; 1, 3, 10, and 100 ng mL^−1 for isoquercitrin; and 0.4, 1.2, 4, and 40 ng mL^−1 for quercetin-3-rhamnoside.
The stability for 6 analysis compounds including 24 h stability (keeping the sample in autosampler conditions of room temperature for 24 h), three freeze/thaw cycles (subjected to 3 cycles of freezing at about −20°C and thawing at room temperature), and a long-term stability (stored at about −80°C for 4 weeks) of analytes in plasma was performed by analyzing QC samples at four different concentrations.

Series [2] is described as follows: Pharmacokinetic study in rats after oral administration of A. japonica extract (LC-MS/MS of plasma). Particulars: male, Sprague-Dawley; for Tmax: n = 10; for MRT: read-out: MRT(0–t24 h); for MRT inf: read-out: MRT(0–∞); for Cmax: read-out: peak plasma concentration (Cmax). Type of series: in vivo. As for the experimental part:
The LC-MS/MS system consisted of an Agilent 1200 system coupled with a binary pump (G1312A), an autosampler (G13678), a vacuum degasser (G1322A), and an API 3200 triple quadrupole mass spectrometer with an ESI source. […] The flow rate was set at 300 μL min^−1 and the inject volume was 10 μL.
The analytes were determined in negative mode and quantified by multiple-reaction monitoring (MRM) mode. The source parameters were as follows: curtain gas, 25 psi; collision gas, 12 psi; ion spray voltage, −4500 V; temperature, 500°C; ion source gas 1, 45 psi; and ion source gas 2, 55 psi, respectively. Data acquisition was operated by Analyst 1.4.2 software (AB Sciex).
100 μL of plasma sample, 10 μL of the IS solutions, and 10 μL of 30% formic acid were added to the tube. Samples were vortex-mixed for 1 min, and 400 μL of acetonitrile was then used in precipitating the protein, after which they were centrifuged for 10 min at 14,000 rpm. The supernatant was transferred into another centrifuge tube and evaporated using nitrogen gas to dryness. The dried residue was reconstituted using 100 μL of methanol. The sample was further shaken and ultrasonicated for 2 min to ensure that it was well dissolved. It was subsequently centrifuged at 14,000 rpm for 10 min, and 10 μL aliquot of the solution was injected into the LC-MS/MS system for analysis.
Ten male Sprague-Dawley rats (270–280 g) were kept at the animal center of Tianjin University of Traditional Chinese Medicine (Tianjin, China) under environmentally controlled conditions. […] According to the clinical dose used in human, the rat dose of A. japonicae extracts used was 0.93 g kg^−1. […] After blood sample collection into the heparinized 1.5 mL polythene tubes and centrifugation at 6000 rpm for 10 min, the plasma was transferred into clean tubes and stored in a freezer at −20°C until analysis. The pharmacokinetic parameters were determined using pharmacokinetics program (DAS1.0 Medical College of Wannan, China) and performing a one compartmental analysis.

[3] abbreviates: rat plasma, LLOQ QC concentration, n = 6.
[4] abbreviates: rat plasma, high QC concentration, n = 6.
Where [5] appears, read: rat plasma, low QC concentration, n = 6.
Setting [6] is: rat plasma, medium QC concentration, n = 6.
Where [7] appears, read: stored at about −80°C for 4 weeks, rat plasma, LLOQ QC concentration, n = 6.
Setting [8] is: stored at about −80°C for 4 weeks, rat plasma, high QC concentration, n = 6.
The mark [9] stands for this setting: stored at about −80°C for 4 weeks, rat plasma, medium QC concentration, n = 6.
The mark [10] stands for this setting: in vivo, rat plasma, oral A. japonica extract 0.93 g kg^−1, one compartment model.
Setting [11] is: rat, plasma, po, 0.93 g/kg, oral A. japonica extract 0.93 g kg^−1, one compartment model, read-out: AUC(0–24 h).
Where [12] appears, read: rat, plasma, po, 0.93 g/kg, oral A. japonica extract 0.93 g kg^−1, read-out: area under the curve (AUC0–24 h).
Setting [13] is: rat plasma, oral A. japonica extract 0.93 g kg^−1, one compartment model.
Where [14] appears, read: rat plasma, oral A. japonica extract 0.93 g kg^−1.

The term AUC(0-inf) denotes total exposure, with the tail of the curve extrapolated. As a reminder, the half-life is the time needed for the level to fall by half in the phase considered. Higher therefore signals slow loss. Usually Tmax stands for the time from dosing to the highest level. The term MRT denotes a mean duration of stay, worked out from the concentration-time curve. For `C[C@@H]1O[C@@H](Oc2c(-c3ccc(O)c(O)c3)oc3cc(O)cc(O)c3c2=O)[C@H](O)[C@H](O)[C@H]1O` [Quercetin-3-rhamnoside, quercetin-3-rhamnoside], the “Free-throw 3 times Accuracy” value in series [1] (setting [3]) worked out at 115%; in series [1] (setting [4]), 85.0%; in series [1] (setting [5]), 90.4%; in series [1] (setting [6]) it was 93.3%. Moreover, the “24 h stability Accuracy” value was determined as 93.7% in series [1] (LLOQ QC concentration, n = 6); 87.3% in series [1] (high QC concentration, n = 6); 96.3% in series [1] (low QC concentration, n = 6); 93.3% in series [1] (medium QC concentration, n = 6). Moreover, the “Long stability (1 month) Accuracy” value in series [1] (setting [7]) was 114%; in series [1] (setting [8]), 85.0%; in series [1] (stored at about −80°C for 4 weeks, rat plasma, low QC concentration, n = 6) it was 92.2%; in series [1] (setting [9]), 90.6%. For the same molecule, the AUC(0-inf) in series [2] (setting [10]) is 6.95 ± 20.7 ng·h/mL. The molecule further gave a half-life in series [2] (setting [10]) of 2.59 ± 2.8 h. Further, the time to peak (Tmax) in series [2] (setting [10]) was determined as 0.5 ± 0.6 h. Also, the MRT in series [2] (setting [10]) turned out to be 5.08 ± 6.36 h. Also, the MRT inf in series [2] (setting [10]) is 7.09 ± 19.6 h. The AUC(0-t) in series [2] (in vivo, rat plasma, oral A. japonica extract 0.93 g kg^−1, read-out: area under the curve (AUC0–24 h)) amounted to 6.44 ± 12 ng·h/mL. Moreover, in series [2] (in vivo, rat plasma, oral A. japonica extract 0.93 g kg^−1), the Cmax was found to be 7.08 ± 8.28 ng/mL.
With `COc1c(O)cc2c(c1O)[C@@H]1O[C@H](CO)[C@@H](O)[C@H](O)[C@H]1OC2=O` [Bergeninum, bergenin], the “Free-throw 3 times Accuracy” value is reported as 106% in series [1] (setting [3]), 87.3% in series [1] (setting [4]), 104% in series [1] (setting [5]) and 94.0% in series [1] (setting [6]). The AUC(0-t) in series [2] (setting [11]) and in series [2] (setting [12]) was 1740 ± 666 ng·h/mL throughout. This molecule also yielded an AUC(0-inf) in series [2] (setting [13]) of 1840 ± 769 ng·h/mL. The half-life in series [2] (setting [13]) was 3.87 ± 1.62 h. For the same molecule, the time of peak concentration (Tmax) in series [2] (setting [13]) was 0.86 ± 0.52 h. In addition, in series [2] (setting [13]), the MRT turned out to be 6.04 ± 1.05 h. In series [2] (setting [13]), the MRT inf came to 7.26 ± 2.17 h. The Cmax in series [2] (setting [14]) worked out at 288 ± 107 ng/mL.
`O=C(O)c1cc(O)c(O)c(O)c1` [Gallic acid, gallic acid]: the “Free-throw 3 times Accuracy” value in series [1] (setting [3]) amounted to 92.5%; in series [1] (setting [4]), 101%; in series [1] (setting [5]), 114%; in series [1] (setting [6]) it was 94.0%. Further, the “24 h stability Accuracy” value in series [1] (LLOQ QC concentration, n = 6) came to 116%; in series [1] (high QC concentration, n = 6), 103%; in series [1] (low QC concentration, n = 6), 111%; in series [1] (medium QC concentration, n = 6), 85.8%. The “Long stability (1 month) Accuracy” value in series [1] (rat, 4 weeks) is on record as 101%; in series [1] (setting [7]), 95.6%; in series [1] (setting [8]), 92.7%; in series [1] (setting [9]), 98.4%. Further, the AUC(0-t) in series [2] (setting [11]) and in series [2] (setting [12]) was 194 ± 44 ng·h/mL in each case. Also, the AUC(0-inf) in series [2] (setting [13]) came to 200 ± 43.9 ng·h/mL. In series [2] (setting [13]), this molecule had a half-life of 3.21 ± 4.56 h. The Tmax in series [2] (setting [13]) came to 1.4 ± 1.13 h. In addition, in series [2] (setting [13]), the MRT was determined as 4.5 ± 1.15 h. In series [2] (setting [13]), the MRT inf is 5.33 ± 1.61 h. Further, the Cmax in series [2] (setting [14]) came out at 35.5 ± 10.2 ng/mL.
As for `O=c1c(O[C@@H]2O[C@H](CO)[C@@H](O)[C@H](O)[C@H]2O)c(-c2ccc(O)c(O)c2)oc2cc(O)cc(O)c12` [Isoquercitrin, isoquercitrin], the “Free-throw 3 times Accuracy” value in series [1] (setting [3]) turned out to be 105%; in series [1] (setting [4]), 91.0%; in series [1] (setting [5]), 103%; in series [1] (setting [6]), 96.9%.
As to `O=C(O[C@@H]1Cc2c(O)cc(O)cc2O[C@@H]1c1ccc(O)c(O)c1)c1cc(O)c(O)c(O)c1` [Epicatechin gallate, epicatechin gallate], the “Free-throw 3 times Accuracy” value in series [1] (setting [3]) came to 109%; in series [1] (setting [4]), 88.0%; in series [1] (setting [5]), 98.4%; in series [1] (setting [6]), 91.4%.
As for `Oc1cc(O)c2c(c1)O[C@H](c1ccc(O)c(O)c1)[C@H](O)C2` [Epicatechin, epicatechin], the “Free-throw 3 times Accuracy” value came to 105% in series [1] (setting [3]), 99.4% in series [1] (setting [4]), 111% in series [1] (setting [5]) and 111% in series [1] (setting [6]).
